The nature of assay [1]: Binding constant for EphB2 tyrosine kinase.
Assay [2] can be described thus: Inhibition of EphB2 receptor tyrosine kinase in ELISA assay. (In an ELISA, binding on a coated surface is turned into a signal by an enzyme label.)

What is called Kd is a measure of binding affinity in units of concentration. Read a low Kd as tighter binding. What is called IC50 is the point on the concentration scale where inhibition reaches its midpoint. In turn, `COc1cc2ncnc(Nc3cccc(Br)c3)c2cc1OC` had a Kd in assay [1] of 8.1 µM. Besides, the IC50 in assay [2] was determined as 10.2 µM.
As to `CC(C)(C)n1nc(-c2ccc(Cl)cc2)c2c(N)ncnc21`, in assay [1], the affinity, expressed as Kd, was 36.5 µM. The molecule further registered an IC50 in assay [2] of 52 µM.
In the same order, the values of `CN(C)c1ccc(/C=C2\C(=O)Nc3ccccc32)cc1` are 19.5 µM and 27.5 µM.
Take `COc1cc2ncnc(Nc3ccc(Oc4ccccc4)cc3)c2cc1OC`: binding in assay [1] was put at a Kd of 58.4 µM. The molecule further returned an IC50 in assay [2] of 86 µM.
The corresponding values for `COc1cc2ncnc(Nc3cccc(O)c3)c2cc1OC` are 2.4 µM and 1.2 µM.
In the same order, the values of `CNc1cc2c(Nc3cccc(Br)c3)ncnc2cn1` are 21.9 µM and 34 µM.

These data come from ChEMBL document CHEMBL1138777, “Frontal affinity chromatography with MS detection of EphB2 tyrosine kinase receptor. 1. Comparison with conventional ELISA” (J Med Chem, 2004).
